# Assay results published in patent US10716829B2, “Method and composition for treatment of hair loss” (NATIONAL HEALTH RESEARCH INSTITUTES, priority 2015, dated 2020).
# Tested on: bulge keratinocytes (CD34+α6+)
# Assay: Colony forming assay on sorted CD34+α6+ bulge keratinocytes in absence or presence of DAPT
# Assay type: cell-based, mouse
# Details: 10 μM for 7 days, cultured with feeders, vs DMSO-treated cultures; keratinocytes from 8-week-old wild type mice
# Procedure: FIG. 5 is a graph showing quantification of a colony forming assay on sorted CD34+α6+ keratinocytes in the absence or presence of DAFT. Equal numbers of sorted CD34±α6+ keratinocytes from 8-week-old wild type mice were cultured with feeders and treated with either DMSO as a vehicle control or 10 μM DAFT for 7 days. […] P<0.05, **:P<0.01.
# We investigated whether the DSB signal seen in Pofut1/Tgfb3-Cre hair follicles was caused by aberrant cell proliferation, which has been reported in the case of oncogene-induced DNA damage checkpoint responses. To test this hypothesis, bulge keratinocytes were isolated from 8 weeks old wild type mice by FACS and cultured in the absence or presence of a γ-secretase inhibitor DAPT (Notch signaling inhibitor).
smiles,measurement,value
C[C@H](NC(=O)Cc1cc(F)cc(F)c1)C(=O)N[C@H](C(=O)OC(C)(C)C)c1ccccc1 [DAPT],numbers of colonies,increases
same,size of colonies,increases
